Measured values published in article PMC9351465, “Mechanism-based heparanase inhibitors reduce cancer metastasis in vivo” (Proceedings of the National Academy of Sciences of the …, 2022).

Key:
[1] = biological target: T1, endogenous cellular HPSE (U87 glioma cells) (Homo sapiens, UniProt Q9Y251); test: H35SPG digest by U87 glioma cell lysates, inhibitor before or after lysis; format: cell-based; settings: inhibitor applied before or after lysis, 18 h digest
T1 construct: endogenous in cells; host or cells: U87 glioma cells
T1 sequence (Q9Y251 158-543 limits assumed): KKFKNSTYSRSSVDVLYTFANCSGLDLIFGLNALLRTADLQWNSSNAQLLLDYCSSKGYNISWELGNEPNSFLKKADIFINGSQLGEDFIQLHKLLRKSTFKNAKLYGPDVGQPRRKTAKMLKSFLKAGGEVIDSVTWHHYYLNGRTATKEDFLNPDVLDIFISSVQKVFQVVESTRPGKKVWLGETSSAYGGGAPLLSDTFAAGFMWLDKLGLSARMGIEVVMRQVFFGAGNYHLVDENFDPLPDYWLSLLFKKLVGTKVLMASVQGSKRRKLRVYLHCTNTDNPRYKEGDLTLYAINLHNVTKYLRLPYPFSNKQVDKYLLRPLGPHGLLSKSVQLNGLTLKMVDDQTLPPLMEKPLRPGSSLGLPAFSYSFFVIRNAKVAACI
T1 sequence (Q9Y251 36-109 limits assumed): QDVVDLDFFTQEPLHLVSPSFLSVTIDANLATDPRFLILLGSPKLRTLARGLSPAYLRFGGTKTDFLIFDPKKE
From the text: Finally, we assessed our inhibitors against HPSE-mediated degradation of bona fide HSPGs in an ECM environment. Cultured bovine corneal endothelial cells secrete a subendothelial basement membrane material rich in proteoglycans, which can be radiolabeled by growth in the presence of ^35SO4^2− ([50]). Solubilized H^35S chains released from H^35SPGs by HPSE digestion can be resolved chromatographically, with HPSE inhibition leading to a corresponding loss of signal. […] We also tested inhibition of endogenous cellular HPSE using this assay format.
Figure S7 Radiolabelled H35SPG basement membrane digests by HPSE expressing U87 cell […]
(1 picture or pasted object on this page, not shown here)
(§1) For HS-degradation assays, ECM coated dishes were incubated with 200 ng recombinant HPSE in 1 mL reaction mixture (10 mM buffer Phosphate-Citrate pH 6.0, 50 mM NaCl, 1 mM DTT, 1 mM CaCl2) containing HPSE inhibitors or DMSO control. […] The Sepharose 6B column was eluted with PBS, and 35S radioactivity of 0.2 mL fractions quantitated using a liquid scintillation analyzer (Packard BioScience) (11). […]
(§2) Cells in the upper chamber were separated by Matrigel from a lower chamber containing 600 µL DMEM, supplemented with 10% FBS. […] 10 randomly selected microscopic fields were recorded, and cell invasion calculated using ImageJ, by quantitating the percentage of the field stained by crystal violet. […]

HPSE = biological target: T2, HPSE (Homo sapiens, UniProt Q9Y251); test: competitive activity-based protein profiling (cABPP) with ABP 7, recombinant HPSE; settings: recombinant HPSE 20 nM, 1 h preincubation at 37°C, then 100 nM ABP 7, pH 5.5
T2 sequence (Q9Y251 158-543 limits assumed): T1 sequence (Q9Y251 158-543 limits assumed)
T2 sequence (Q9Y251 36-109 limits assumed): T1 sequence (Q9Y251 36-109 limits assumed)

B16 melanoma cells = test: B16 murine melanoma experimental lung metastasis model; format: in vivo, mouse; settings: C57BL/J6 mice, i.p. 300 nmol 2 or 150 μg SST0001, then i.v. B16 cells with 2 nmol 2 or 10 μg SST0001; after 14 d; vs PBS
Procedure: We initially tested a B16 murine melanoma metastasis model, measuring the formation of metastatic lung tumors by B16 melanoma cells after intravenous (i.v.) injection. The efficacy of covalent HPSE inhibition by 2 was compared to SST0001 (Roneparstat), a current best-in-class HPSE inhibitor and clinical trial candidate (SI Appendix, Fig. S1). Mice were inoculated intraperitoneally (i.p.) with 300 nmol of 2 (∼15 μmol/kg for a 20 g mouse), or 150 μg SST0001, followed by an i.v. injection of B16 cells alongside 2 nmol 2 or 10 μg SST0001.
as §1, §2
Mice were sacrificed after 14 days and the lungs were dissected, photographed and evaluated for the number of metastatic foci/lung. […]

HPSE inhibition (cABPP) (HPSE): nanomolar HPSE inhibition potencies
Compound: CC(=O)N[C@H]1[C@@H](O[C@H]2[C@H](O)[C@@H](O)[C@@H]3O[C@@H]3[C@@H]2C(=O)O)O[C@H](CO)[C@@H](O)[C@@H]1O [compound 2]
inhibition of intracellular HPSE pool (cell penetration) [1]: can also penetrate cells to inhibit the intracellular HPSE pool | lung metastases (metastatic foci/lung) (B16 melanoma cells): marked reduction in lung growths
